From patent US20080220416A1, “Compositions for Inhibiting Cell Growth and Inducing Apoptosis in Cancer Cells and Methods of Use Thereof” (THE BOARD OF TRUSTEES OF THE UNIVERSITY OF ILLINOI, priority 2004, published 2008)
Square brackets hold non-standard residues; d marks the D form. Peptide text beside a SMILES is read from it. * marks the point of attachment. Nle = CCCC[C@H](N)C(=O)O; Cbz = O=C(OCc1ccccc1)*

Experiments:
Assay type in all cases: cell-based, human
CaSki cells = assay: LY411,575 combinations in CaSki cells, growth inhibition and isobologram analysis; details: CaSki
Protocol: To evaluate the possibility that inhibition of Notch signaling may sensitize advanced cervical cancers to the effect of cisplatin chemotherapy because Notch-1 protects these cells from apoptosis through the AKT and NF-κB pathways, a non-peptide, benzodiazepine gamma-secretase inhibitor, LY411,575 (Wong et al., 2004, J Biol. Chem. 279:12876-82) was tested in combination with a AKT inhibitor (AKT inhibitor I) or a proteasome inhibitor (MG-132) for effects on cell growth. The latter class of drugs is thought to act primarily by preventing NF-KB activation (Adams, J, 2002, Curr Opin Oncol 14:628-634; Richardson, P, 2003, Cancer Treat Rev 29 Suppl 1:33-39) caused by proteasome-mediated degradation of IκB.
To determine whether LY411,575 potentiates the effect of AKT inhibitor I or MG-132, CaSki cells were treated with (a) LY411,575 (6.25 μM to 50 μM) and AKT inhibitor 1 (0.5 μM to 75 μM), or (b) LY411,575 (1.5 μM to 200 μM) and MG-132 (0.05 μM to 0.2). Following the drug treatment, the cells were tested for growth inhibition as described above. LY411,575 was synthesized according to methods well known in the art (e.g., see WO-09828268, which is incorporated by reference), and AKT inhibitor I and MG-132 were purchased from Calbiochem.
The IC50 values of LY411,575 in the presence of various concentrations of AKT inhibitor I or MG-132 were measured. […]

[1] = tested on: cytochrome C and Smac/DLABLO; assay: Mitochondrial integrity by Western blot in RJ002L melanoma cells; details: 10 μM
Protocol: Western blot analyses following z-Leu-Leu-Nle-CHO and control treatment of RJ002L melanoma cells were performed to determine the effect of z-Leu-Leu-Nle-CHO on pro-survival and pro-apoptotic proteins. Whole cell extracts were prepared and analyzed as described by Denning, M. F. et al., 1998, J Biol Chem 273: 29995-30002, 1998. The enriched mitochondria pellet and mitochondria-free cytosol of melanoma cells were prepared with the APO ALERT cell fraction kit (Clontech Laboratories, Inc. Palo Alto, Calif.) according to the manufacturer's instructions. For Western blot analysis, equal amounts of protein extracted from each sample (20-30 μg) were loaded into pre-cast 7% NuPAGE Tris-acetate gels or 4-12% NuPAGE Bis-tris gels (Invitrogen). Proteins were separated by SDS-PAGE and transferred to polyvinylidene difluoride membranes (Bio-Rad, Hercules, Calif.) using Invitrogen's buffering system. The indicated primary antibodies were incubated for indicated period of time, washed, and visualized by incubation with horseradish peroxidase-conjugated secondary antibodies and chemiluminescent reagents (Roche Diagnostics Corporation, Indianapolis, Ind.). […]
Mitochondrial integrity before and after exposure to z-Leu-Leu-Nle-CHO was evaluated using Western blot analysis as described above.

Notch-1 = Notch-1 cleavage in CaSki cells (Western blot N^TM, N^IC); details: 0-5 μM, 24 h
Protocol: The CaSki human cervical cancer cells were incubated for 24 h with various concentrations (0-5 μM) of the dual inhibitor z-Leu-Leu-Nle-CHO (Calbiochem) (FIG. 13A). The cells were then collected and assayed for Notch-1 and Notch-4 expression by Western blotting. Immunoblotting was performed using antibodies to the transmembrane portion of Notch-1 (N^TM) (Santa Cruz Biotechnology (Santa Cruz, Calif.)), or the intracellular portion of Notch-1 (N^IC) (Abcam, Inc. (Cambridge, Mass.)). Secondary anti-goat, anti-rnouse, anti-rabbit and anti-rat antibodies (IgG-HRP) were purchased from Vector Laboratories (Burlingame, Calif.), Santa Cruz Biotechnology and Amersham Biosciences. For Western blot analysis, equal amounts of protein extracted from each sample (20 μg) were loaded into pre-cast 7% NuPAGE Tris-acetate gels or 4-12% NuPAGE Bis-tris gels (Invitrogen). Proteins were separated by SDS-PAGE and transferred to polyvinylidene difluoride membranes (Bio-Rad, Hercules, Calif.) using Invitrogen's buffering system. The membranes were incubated with the indicated primary antibodies, washed, and visualized by incubation with horseradish peroxidase-conjugated secondary antibodies and chemiluminescent reagents (Roche Diagnostics Corporation, Indianapolis, Ind.).

[2] = tested on: MDA-MB-231 breast cancer cells; assay: z-Leu-Leu-Nle-CHO plus Paclitaxel, growth inhibition of MDA-MB-231 cells; details: 0-0.8 μM with Paclitaxel, 48 h
Protocol: (§1) Three different types of breast cancer cells were contacted with varying concentrations of z-Leu-Leu-Nle-CHO (0-0.8 μM) and the mitotic poison Paclitaxel (0.01-1 μM). MDA-MB231 cells were obtained from ATCC (Rockville, Md.). T47D:C42 and T47D:A18 cells were a kind gift of Debra Tonetti (University of Illinois-Chicago). MDA-MB231 cells were cultured in DMEM medium with 10% FBS. T47D:C42 and T47D:A18 cells were propagated in RPMI 1640 with 10% FBS, 100 μM non-essential amino acid and 6 ng/ml insulin. Gamma-secretase inhibitor z-Leu-Leu-Nle-CHO (Calbiochem 565750) was dissolved in DMSO, aliquoted and stored at −80° C. Paclitaxel (Sigma, St. Louis Mo.) was dissolved in DMSO, aliquoted and stored at −80° C.
(§2) To determine whether z-Leu-Leu-Nle-CHO treatment potentiates the effect of Paclitaxel on human breast cancer cells, MDA-MB231, T47D:C42 and T47D:A18 cells were treated for 48 h with 0-0.8 μM z-Leu-Leu-Nle-CHO and various concentrations of Paclitaxel (0.008-1 μM) Following the z-Leu-Leu-Nle-CHO and Paclitaxel treatment, the cells were tested for growth inhibition as described above in Example 13.

[3] = tested on: T47D:C42 breast cancer cells; assay: z-Leu-Leu-Nle-CHO plus Paclitaxel, growth inhibition of T47D:C42 cells; details: 0-0.8 μM with Paclitaxel, 48 h
Protocol: as §1, §2

| Compound | combination with LY411,575 in cytotoxicity assays / isobologram (CaSki cells) | release of cytochrome C and Smac/DLABLO from mitochondria [1] | cleaved and transmembrane Notch-1 (Notch-1) | effect on Paclitaxel cell growth inhibition [2] | effect on Paclitaxel cell growth inhibition [3] |
| --- | --- | --- | --- | --- | --- |
| CC(C)C[C@@H](C=O)NC(=O)[C@H](CC(C)C)NC(=O)[C@H](CC(C)C)NC(=O)OCc1ccccc1 [MG-132, benzoxycarbonyl-Leucyl-Leucyl-Leucyl-aldehyde] (Cbz-Leu-Leu-Leu-aldehyde) | striking synergism |  |  |  |  |
| CCCC[C@@H](C=O)NC(=O)[C@H](CC(C)C)NC(=O)[C@H](CC(C)C)NC(=O)OCc1ccccc1 [z-Leu-Leu-Nle-CHO, N-benzyloxycarbonyl-leucyl-leucyl-norleucinal] (Cbz-Leu-Leu-[Nle]-aldehyde) |  | released into the cytoplasm of RJ002L melanoma cells as early as 1 hr | dose-dependent reduction in cleaved Notch-1 | moderately potentiated the effects of Paclitaxel on cell growth inhibition | potentiated the effects of Paclitaxel on cell growth inhibition |
